Assay results taken from patent US12410136B2, “Pyridinyl morpholine compound, preparation method therefor, and application thereof” (SHANGHAI ZHONGZE THERAPEUTICS, CO. LTD., priority 2020, dated 2025).
Where two headings read alike, the source gives them in different places.

Tests used:
[1] = target: T1, human recombinant D3 receptor (Homo sapiens, UniProt P35462); assay: Dopamine D3 receptor binding test; settings: [3H]methyl-spiperone 0.3 nM, human recombinant D3 receptor expressed in CHO cells; read-out: Affinity of the compound for each receptor (Ki value, nM) D3
T1 construct: expressed in transfected cells; host or cells: CHO
T1 sequence (P35462 whole entry): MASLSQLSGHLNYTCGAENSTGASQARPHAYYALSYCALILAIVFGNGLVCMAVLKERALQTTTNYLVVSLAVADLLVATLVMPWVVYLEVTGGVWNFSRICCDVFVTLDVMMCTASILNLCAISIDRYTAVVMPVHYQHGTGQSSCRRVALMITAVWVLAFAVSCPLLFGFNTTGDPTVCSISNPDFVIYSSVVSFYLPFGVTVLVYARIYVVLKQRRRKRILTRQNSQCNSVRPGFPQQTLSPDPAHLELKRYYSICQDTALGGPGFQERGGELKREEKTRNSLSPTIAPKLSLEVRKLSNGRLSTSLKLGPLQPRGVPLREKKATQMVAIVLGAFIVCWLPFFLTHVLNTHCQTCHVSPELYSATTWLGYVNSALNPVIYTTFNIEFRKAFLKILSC
Description: Dopamine D3 Receptor Binding Test
[^3H]methyl-spiperone (0.3 nM) was used as the ligand, and (+)-butaclamol (10 μM) was used to determine the non-specific binding, and the binding assay was performed on human recombinant D3 receptor (expressed in CHO cells).

[2] = test system: mouse model of schizophrenia induced by MK-801; assay: MK-801 model experiment (open-field motion); settings: for ED50: Mus musculus, 1.5 h, read-out: Effect on the total distance of open-field motion in mouse model of schizophrenia induced by MK-801, ED50; for Improvement rate on open-field motion of mice compared with cariprazine: MK-801 model, oral
Description: An acute mode of administration was used in the experiment. The experimental mice were randomly divided into groups and put into a spontaneous activity box to adapt for 5-10 minutes before the experiment. […] The data were expressed as mean±standard error (Mean±SEM), and were analyzed using GraphPad Prism software, and data analysis was performed using t-test, and a significant difference was considered to exist when P<0.05.

[3] = Acute toxicity experiment, single oral administration; settings: ICR, mouse, in vivo
Description: Acute Toxicity Experiments of the Compound
2) Solvent preparation: An appropriate amount of Tween-80 was weighed and diluted with deionized water to a concentration of […] (g/v) Tween-80.
4) Route of administration: The administration route of the test samples and the solvent control group (0.5% Tween-80) was oral administration.
5) Frequency of administration: Single administration, fasting overnight before administration.
6) Dosing capacity: 20 mL/kg.
[…]; the observation period was 2 to 6 days, twice a day, once in the morning and once in the afternoon.
The observation content includes, but is not limited to, general condition, behavioral activity, gait posture, eye, mouth, nose, gastrointestinal tract, skin hair, urogenital tract.
Body weight data were expressed as mean±standard deviation, and were compared between groups using Levene's test and one-way ANOVA. If there were differences, Dunnet t test was used.
In the MTD test, the tolerance of the animals to the drug was investigated, and the maximum tolerated dose was reached when the animals were dying frequently.

5-HT2A receptor = target: T2, 5-HT2A receptor (Homo sapiens, UniProt P28223); assay: 5-HT2A receptor binding test
T2 construct: expressed in transfected cells; host or cells: HEK293
T2 sequence (P28223 whole entry): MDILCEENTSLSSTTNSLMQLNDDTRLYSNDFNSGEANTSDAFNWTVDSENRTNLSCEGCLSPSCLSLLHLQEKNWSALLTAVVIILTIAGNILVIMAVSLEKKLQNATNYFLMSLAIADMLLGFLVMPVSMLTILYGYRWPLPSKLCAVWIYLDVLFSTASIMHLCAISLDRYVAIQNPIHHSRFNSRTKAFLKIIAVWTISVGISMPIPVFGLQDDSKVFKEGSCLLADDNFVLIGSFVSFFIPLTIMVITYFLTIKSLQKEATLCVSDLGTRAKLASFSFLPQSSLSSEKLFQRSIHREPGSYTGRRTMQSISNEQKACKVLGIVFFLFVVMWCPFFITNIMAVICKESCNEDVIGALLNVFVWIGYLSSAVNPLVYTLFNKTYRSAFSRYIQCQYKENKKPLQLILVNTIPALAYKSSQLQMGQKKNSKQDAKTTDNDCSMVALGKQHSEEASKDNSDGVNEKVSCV
Description: 5-HT2A Receptor Binding Test
Beckman LS-6500 multifunctional liquid scintillation counter.
Tris-HCl reaction buffer (pH 7.7) was used to resuspend in the experiment.

[4] = test system: mouse schizophrenic model induced by Apo.; assay: Apomorphine model experiment (stereotyped motion); type: in vivo, C57BL/6 mice; settings: for ED50: Mus musculus, single oral administration, apomorphine 5 mg/kg i.p., mice, read-out: Inhibition of total stereotyped motion of mouse schizophrenic model induced by Apo., ED50; for Effect (ED50) on the stereotyped behavior of mice compared with cariprazine: apomorphine model, oral
Description: 1. Apomorphine Model Experiment
1) 4 point, continuous biting;
2) 3 point, the cage lid was bit at least once during observation;
3) 2 point, the cage chassis or cage wall was licked at least once during observation;
4) 1 point, compulsive sniffing and bowing activities were appeared;
5) 0 point, no of the above activities.
The total score of the mice was calculated for the above behaviors within 70 min, and the improvement rate was calculated according to the following formula.
During the experiment, the clinical response symptoms of the animals were recorded.
All data were expressed as x±SEM, processed with the 11.5 software statistical package, and t-test and one-way analysis of variance were performed for the comparison of the means of the two samples, with P<0.05 as a significant difference.

H1 receptor = target: T3, H1 receptor (Homo sapiens, UniProt P35367); assay: H1 receptor binding test; settings: 1 nM [3H]pyrilamine, HEK-293 cell membrane homogenate; read-out: Affinity of the compound for H1 receptor (Ki value, nM) H1
T3 construct: expressed in transfected cells; host or cells: HEK-293
T3 sequence (P35367 whole entry): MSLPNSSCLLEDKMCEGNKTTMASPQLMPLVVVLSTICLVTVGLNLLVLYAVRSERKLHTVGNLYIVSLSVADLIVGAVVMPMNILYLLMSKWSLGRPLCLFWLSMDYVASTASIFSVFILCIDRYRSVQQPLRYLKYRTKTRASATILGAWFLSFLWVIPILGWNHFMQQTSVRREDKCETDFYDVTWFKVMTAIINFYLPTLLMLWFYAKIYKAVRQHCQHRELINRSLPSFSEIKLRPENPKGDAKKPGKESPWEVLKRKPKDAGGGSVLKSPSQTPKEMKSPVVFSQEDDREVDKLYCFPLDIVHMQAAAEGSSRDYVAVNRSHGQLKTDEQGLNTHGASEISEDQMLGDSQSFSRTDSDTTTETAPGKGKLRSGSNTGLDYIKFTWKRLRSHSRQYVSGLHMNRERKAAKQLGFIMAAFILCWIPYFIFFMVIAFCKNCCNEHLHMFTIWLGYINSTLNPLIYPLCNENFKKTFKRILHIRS
Description: Non-specific binding was determined in the presence of 1 μM pyrilamine.

D2 receptor = D2 receptor (Homo sapiens, UniProt P14416); assay: Dopamine D2 receptor binding test
Chain of D2 receptor (P14416 whole entry): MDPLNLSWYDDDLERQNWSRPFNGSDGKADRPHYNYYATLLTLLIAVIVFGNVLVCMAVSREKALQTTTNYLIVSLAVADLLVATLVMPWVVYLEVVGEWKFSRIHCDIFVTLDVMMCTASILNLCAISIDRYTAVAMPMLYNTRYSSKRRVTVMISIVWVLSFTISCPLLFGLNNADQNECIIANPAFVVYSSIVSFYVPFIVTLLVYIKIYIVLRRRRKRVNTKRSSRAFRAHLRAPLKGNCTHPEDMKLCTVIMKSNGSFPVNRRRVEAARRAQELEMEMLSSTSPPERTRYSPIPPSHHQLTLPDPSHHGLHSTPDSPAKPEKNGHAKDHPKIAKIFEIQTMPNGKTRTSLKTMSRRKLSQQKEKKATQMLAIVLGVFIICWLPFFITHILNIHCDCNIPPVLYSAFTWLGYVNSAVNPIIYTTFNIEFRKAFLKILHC
Description: Dopamine D2 Receptor Binding Test
In this experiment, HEK293 cells were transfected with plasmid vector containing D2 receptor protein gene, and calcium phosphate transfection method was used and after transfection, the cells were cultured in a culture solution containing G418, and the cell monoclonal and radioligand binding experiments were selected, and finally a stable cell line which could stably express D2 receptor protein was obtained.
HeK-293 cells were infected with recombinant viruses containing the above various genes respectively, and after 48-72 hours, the receptor proteins were expressed in large quantities on the membrane, and the cells were centrifuged at 1000 rpm for 5 min and then the culture solution was discarded, and the cells were collected, and stored in a −20° C. refrigerator for later use. Tris-HCl reaction buffer (pH=7.5) was used to resuspend in the experiment.
On the Millipore cell sample collector, the mixture was quickly filtrated under reduced pressure through GF/C glass fiber filter paper, and eluted with 3 mL of eluent (50 mMTris-HCl, pH 7.5) for 3 times, then dried under microwave for 5 to 6 min. The filter paper was moved into a 0.5 mL centrifuge tube, and 500 μL of lipid-soluble scintillation solution was added. The mixture was kept in the dark for more than 30 min, and the radioactivity intensity was determined by counting. […] Two replicate tubes were made for each experiment of compound, and two separate experiments were performed.
Two tubes were tested for each concentration and two independent tests were performed for each compound.

[5] = single oral administration, ICR mice, read-out: MTD (maximum tolerance)
[6] = [3H]-Ketanserin, 5-HT2A receptor expressed in HEK293 cells, read-out: Affinity of the compound for each receptor (Ki value, nM) 5-HT2A

Structure (SMILES) | Ki [1] [nM] | ED50 [2] [mg/kg] | MTD [3, 5] [mg/kg] | Ki (5-HT2A receptor; [6]) [nM] | ED50 [4] [mg/kg] | Effect (ED50) on the stereotyped behavior of mice compared with cariprazine [4] | Ki (H1 receptor) [nM] | Ki (D2 receptor) [nM] | Improvement rate on open-field motion of mice compared with cariprazine [2] | Ki (5-HT2A receptor) [nM] | MTD [3] [mg/kg]
O=C(N[C@H]1CC[C@H](CCN2CCN(c3cc(-c4cccs4)cc(N4CCOCC4)n3)CC2)CC1)N1CCCC1 [VI-5, N-(trans-4-(2-(4-(6-morpholino-4-(thiophen-2-yl)pyridin-2-yl)piperazin-1-yl)ethyl)cyclohexyl)tetrahydropyrrole-1-carboxamide] | 0.07 | 0.08 | > 2000 | 1.1 | 0.16 | better effects | > 1000 | 1 |  |  | 
CC(=O)N[C@H]1CC[C@H](CCN2CCN(c3cc(-c4cccs4)cc(N4CCOCC4)n3)CC2)CC1 [VI-1, N-(trans-4-(2-(4-(6-morpholino-4-(thiophen-2-yl)pyridin-2-yl)piperazin-1-yl)ethyl)cyclohexyl)acetamide] | 0.05 | 0.12 |  | 1.6 | 0.55 |  | > 1000 | 0.8 | better |  | 
CN(C)C(=O)N[C@H]1CC[C@H](CCN2CCN(c3cc(-c4ccc[nH]4)cc(N4CCOCC4)n3)CC2)CC1 [VII-4, 1,1-dimethyl-3-(trans-4-(2-(4-(6-morpholino-4-(1H-pyrrol-2-yl)pyridin-2-yl)piperazin-1-yl)ethyl)cyclohexyl)urea] | 0.03 | 0.25 | ≥ 400 | 1.1 | 0.2 | better effects | > 1000 | 0.6 |  |  | 
CCCN(C)C(=O)N[C@H]1CC[C@H](CCN2CCN(c3cc(-c4ccc(F)cc4)cc(N4CCOCC4)n3)CC2)CC1 [II-6, 3-(trans-4-(2-(4-(4-(4-fluorophenyl)-6-morpholinopyridin-2-yl)piperazin-1-yl)ethyl)cyclohexyl)-1-methyl-1-propylurea] | 0.04 | 0.1 |  | 1.3 | 0.13 | better effects | > 1000 | 1 | better |  | 
O=C(N[C@H]1CC[C@H](CCN2CCN(c3cc(-c4ccccc4)cc(N4CCOCC4)n3)CC2)CC1)c1ccco1 [Compound I-6, N-((trans)-4-(2-(4-(6-morpholino-4-phenylpyridin-2-yl)piperazin-1-yl)ethyl)cyclohexyl)furan-2-carboxamide] | 0.02 | 0.2 | > 2000 | 1 | 0.43 |  | > 1000 | 0.14 |  |  | 
CCOC(=O)N[C@H]1CC[C@H](CCN2CCN(c3cc(-c4ccccc4)cc(N4CCOCC4)n3)CC2)CC1 [Compound I-3, ethyl ((trans)-4-(2-(4-(6-morpholino-4-phenylpyridin-2-yl)piperazin-1-yl)ethyl)cyclohexyl)carbamate] | 0.08 | 0.33 | ≥ 400 |  | 0.19 | better effects | > 1000 | 2.5 |  | 2.1 | 
O=C(N[C@H]1CC[C@H](CCN2CCN(c3cc(-c4cccnc4)cc(N4CCOCC4)n3)CC2)CC1)c1ccco1 [IV-2] | 0.03 | 0.05 | > 2000 | 1.1 | 0.1 | better effects | > 1000 | 0.9 | better |  | 
CN(C)C(=O)N[C@H]1CC[C@H](CCN2CCN(c3cc(-c4ccccc4)cc(N4CCOCC4)n3)CC2)CC1 [Compound I-7, 1,1-dimethyl-3-(trans-4-(2-(4-(6-morpholino-4-phenylpyridin-2-yl)piperazin-1-yl)ethyl)cyclohexyl)urea] | 0.01 |  |  | 0.2 |  |  | 420 | 0.12 |  |  | 
CN(C)C(=O)N[C@H]1CC[C@H](CCN2CCN(c3cc(-c4cccs4)cc(N4CCOCC4)n3)CC2)CC1 [VI-4, 1,1-dimethyl-3-(trans-4-(2-(4-(6-morpholino-4-(thiophen-2-yl)pyridin-2-yl)piperazin-1-yl)ethyl)cyclohexyl)urea] | 0.1 |  |  | 0.9 |  |  | 590 | 2 |  |  | 
O=C(N[C@H]1CC[C@H](CCN2CCN(c3cc(-c4cccs4)cc(N4CCOCC4)n3)CC2)CC1)C1CC1 [VI-2, N-(trans-4-(2-(4-(6-morpholino-4-(thiophen-2-yl)pyridin-2-yl)piperazin-1-yl)ethyl)cyclohexyl)cyclopropanecarboxamide] | 0.08 |  |  | 2.1 |  |  | > 1000 | 1.3 |  |  | 
CN(C)C(=O)N[C@H]1CC[C@H](CCN2CCN(c3cccc(Cl)c3Cl)CC2)CC1 [Cariprazine, cariprazine, reference compound] |  | 0.15 |  |  | 0.3 |  |  |  |  |  | 320
O=C(N[C@H]1CC[C@H](CCN2CCN(c3cc(-c4ccc(F)cc4)cc(N4CCOCC4)n3)CC2)CC1)c1cccnc1 [II-2, N-(trans-4-(2-(4-(4-(4-fluorophenyl)-6-morpholinopyridin-2-yl)piperazin-1-yl)ethyl)cyclohexyl)nicotinamide] | 0.07 | 0.07 | ≥ 400 | 2.4 | 0.08 | better effects | > 1000 | 0.9 | better |  | 
O=C(N[C@H]1CC[C@H](CCN2CCN(c3cc(-c4ccc[nH]4)cc(N4CCOCC4)n3)CC2)CC1)c1ccco1 [VII-2, N-(trans-4-(2-(4-(6-morpholino-4-(1H-pyrrol-2-yl)pyridin-2-yl)piperazin-1-yl)ethyl)cyclohexyl)furan-2-carboxamide] | 0.1 |  |  | 0.7 |  |  | 600 | 2.6 |  |  | 
O=C(N[C@H]1CC[C@H](CCN2CCN(c3cc(-c4ccco4)cc(N4CCOCC4)n3)CC2)CC1)N1CCCCC1 [Compound V-4, N-(trans-4-(2-(4-(4-(furan-2-yl)-6-morpholinopyridin-2-yl)piperazin-1-yl)ethyl)cyclohexyl)piperidine-1-carboxamide] | 0.3 |  |  | 2.8 |  |  | > 1000 | 10.6 |  |  | 
O=C(N[C@H]1CC[C@H](CCN2CCN(c3cc(-c4ccc(F)cc4)cc(N4CCOCC4)n3)CC2)CC1)c1ccco1 [II-3, N-(trans-4-(2-(4-(4-(4-fluorophenyl)-6-morpholinopyridin-2-yl)piperazin-1-yl)ethyl)cyclohexyl)furan-2-carboxamide] | 0.09 |  |  | 1.2 |  |  | 980 | 1.4 |  |  | 
O=C(N[C@H]1CC[C@H](CCN2CCN(c3cc(-c4ccco4)cc(N4CCOCC4)n3)CC2)CC1)N1CCOCC1 [Compound V-5, N-(trans-4-(2-(4-(4-(furan-2-yl)-6-morpholinopyridin-2-yl)piperazin-1-yl)ethyl)cyclohexyl)morpholine-4-carboxamide] | 0.04 | 0.51 | ≥ 400 | 2.9 | 0.78 |  | > 1000 | 1 |  |  | 
